In patent US11339147B2, “Lactam compound as FXR receptor agonist” (CSPC ZHONGQI PHARMACEUTICAL TECHNOLOGY (SHIJIAZHUANG) CO., …, priority 2017, dated 2022):

System: NASH model
Assay: In vivo efficacy test: NASH model in mice by high-fat diet feeding and CCl4 induction
Parameters: species or system C57/BL6 mice
Details: intragastric once a day for 28 days; for gene expression of collagen-alpha in the liver: FIG. 3; for total cholesterol (TC) and triglyceride (TG) levels in the liver: FIG. 2
Excerpt: In this test, NASH model was established on mice by two procedures of high-fat diet feeding and CCl4 induction to test the effects of compounds on treating NASH. Briefly, the modeling process includes feeding C57/BL6 mice with high-fat diet to induce obesity in mice and produce non-alcoholic fatty liver disease; selecting 40 obese mice with a body weight >35 g when >80% of mice reached 35 g or more, continuously feeding with high-fat diet while intraperitoneal injection of CCl4 twice a week for four weeks; as for 10 normal animals in the same batch, feeding intraperitoneally with olive oil as a healthy control. The day when CCl4 feeding was started was set to the 0th day, and the time when CCl4 feeding was started was set to 0th hour. On the day when CCl4 feeding was started, the intragastric administration was started, 5 mL/kg once a day for 4 weeks, namely 28 days. Test doses of the compound were 15 mg/kg, 30 mg/kg, 60 mg/kg, respectively; healthy control and vehicle control were given vehicle 1% hydroxypropyl methylcellulose (HPMC). During the whole experiment period, the animals were weighed and their health was monitored every day. If there are special circumstances, the relevant project leader should be notified in time and the corresponding records should be made. On the 28th day, after all the animals were weighed, they were euthanized after narcotizing and blood collecting, and the liver was taken. After the blood sample was processed into serum, ALT/AST/TG/TC were tested; for parts of the liver samples, liver TG and TC and the relative expression of collagen-1 alpha gene were tested, and for the other part, liver samples was taken for pathological analysis.

SMILES: O=C(O)c1cnc(N2C(=O)CCc3cc(OCc4c(-c5c(Cl)cccc5Cl)noc4C4CC4)ccc32)c(Cl)c1 [Compound 37]
- blood biochemical ALT/AST indicators (15 mg/kg, FIG. 1): significant decrease
- gene expression of collagen-alpha in the liver (15 mg/kg): significant decrease
- nonalcoholic fatty liver score NAFLD (overall evaluation, pathological tissue analysis) (15 mg/kg, FIG. 5): significant reduction
- total cholesterol (TC) and triglyceride (TG) levels in the liver (30 mg/kg): significant decrease
- total cholesterol (TC) and triglyceride (TG) levels in the liver (60 mg/kg): significant decrease
- gene expression of collagen-alpha in the liver (60 mg/kg): significant decrease
- liver fibrosis (pathological tissue analysis) (60 mg/kg, FIG. 4): significant reduction
- nonalcoholic fatty liver score NAFLD (overall evaluation, pathological tissue analysis) (60 mg/kg, FIG. 5): significant reduction
- single steatosis, inflammatory molecules and ballooning change (60 mg/kg, FIG. 5): remarkable efficacy
